Like-named read-outs stand apart in the source and are kept apart here.
How the values were obtained:
[1] = test system: pRAS111 ScFvNP protein (VHNP (G4S)3 VλJ558L, SEQ ID No 3); assay: ELISA-based affinity determinations of pRAS111 ScFvNP protein (methods of Mariani et al 1987 and Hogg et al 1987); type: binding, mouse; conditions: for Kd: antigen coat
Excerpt: Affinity of pRAS111 ScFv for NIP was estimated firstly by adapting the method of Mariani et al (1987) Molec. Immunol. […] This approximation only holds true if the number of available binding sites per well is sufficiently low that their contribution is insignificant. Determinations of Kapp should approach Kactual as the amount of antigen per well is reduced.
To confirm the accuracy of this approach, similar estimations of K were made using the method of Hogg et al (1987) Molec. Immunol. 24, 797-801) in the absence of competing antigen, by calculating the slope of the linear portion of a plot of A450 /[ScFvNP ] v A450, where A450 /[ScFvNP ]=fKn-fK(A450), A450 is the absorbance at 450 nm, [ScFvNP ] is the concentration of added ScFvNP, n is the concentration of available binding sites and f is the valency of the ScFvNP for NIP. A value of 1 was assigned to f.

[2] = biological target: ScFv encoded by pRAS111 (ScFvNP, VHNP (G4S)3 VλJ558L, SEQ ID No 3); assay: ELISA binding and competition of pRAS111 ScFv on a NIP15-BSA coat; parameters: species or system mouse; conditions: read-out: binding affinity for NP, Kd
Experimental: Filtered bacterial supernatants were applied to wells of a 96-well plate previously coated with […] NIP15 -BSA or […] egg lysozyme, and bound protein was detected by serial incubation with biotinylated Gαmλ antiserum and HRPO-streptavidin conjugate. Colour changes were generated by incubation with ABTS and were monitored at 405 nm.
A soluble protein present in the growth medium of JM109 (DE3)/pRAS111 cultures, but not in cultures of JM109 (DE3), binds NIP15 -BSA, but not lysozyme (FIG. 5). Filtered bacterial growth medium recovered after induction of pRAS111 protein was applied to wells of an ELISA plate coated with 10 μg.ml^-1 NIP15 -BSA (.circle-w/dot.) or 300 μg.ml^-1 hen egg lysozyme (.diamond-solid.). Bound protein was detected by serial incubation with biotinylated Gαmλ (Goat anti-mouse lambda light chain) antisera and horseradish peroxidase conjugated streptavidin diluted in blocking buffer, and colour changes generated by addition of ABTS were monitored at 405 nm. A soluble protein present in the growth medium of JM109(DE3)/pRAS111 cultures, but not in cultures of JM109(DE3), binds NIP15 -BSA, can be competed with NIP15 -BSA (FIG. 6). […] Bound protein was detected by serial incubation with biotinylated Gαmλ antisera and horseradish peroxidase conjugated streptavidin, and colour changes generated by addition of ABTS were monitored at 405 nm.

[3] = concn 5 mg ml^-1 of coating buffer, no competing antigen, f = 1, read-out: K, Hogg et al (1987) (converted)
[4] = concn 5 mg ml^-1 of coating buffer, read-out: K, Mariani et al (1987) (converted)

Compound: O=C(O)Cc1cc(I)c(O)c([N+](=O)[O-])c1 [NIP, 4-hydroxy-3-iodo-5-nitrophenylacetic acid]
- Kapp, affinity for NIP (K) ([1]; method of Mariani et al (1987), Ct50 = 1/Kapp, at low amount of antigen per well): 2-3×10^8 M^-1

Compound: O=C(O)Cc1ccc(O)c([N+](=O)[O-])c1 [NP, 4-hydroxy-3-nitrophenylacetic acid]
- Kd [2]: 4 nM

Compound: NIP4 BSA: low coupling ratio NIP-BSA, 3.7 haptens per protein molecule
- Kd [1, 3]: 5.56 nM
- Kd [1, 4]: 4 nM
- Kd ([1]; concn 10 mg ml^-1 of coating buffer, no competing antigen, f = 1, read-out: K, Hogg et al (1987) (converted)): 8.33 nM
- Kd ([1]; concn 10 mg ml^-1 of coating buffer, read-out: K, Mariani et al (1987) (converted)): 3.45 nM

Compound: NIP16 BSA: high coupling ratio NIP-BSA, 16.4 haptens per protein molecule
- Kd ([1]; concn 1 mg ml^-1 of coating buffer, no competing antigen, f = 1, read-out: K, Hogg et al (1987) (converted)): 1.23 nM
- Kd ([1]; concn 1 mg ml^-1 of coating buffer, read-out: K, Mariani et al (1987) (converted)): 1.22 nM
- Kd [1, 3]: 0.625 nM
- Kd [1, 4]: 0.4 nM

Compound: NIP conjugated to BSA: hapten NIP coupled to BSA via NIP-cap-OSu
- affinity for NIP conjugated to BSA ([1]; pH 7.4): 1-3×10^8 M^-1
